Assay results published in ChEMBL document CHEMBL1201862, “PubChem BioAssay data set” (2004).
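Cultured in 96-well plates, cells were exposed to test compound for 48 hours across five concentrations. GI50 = concentration required for 50% inhibition of growth.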 Active and inactive are the calls of the source. Cut-off read from the data, not from the text of the source: active = GI50 up to about 1.1 µM and inactive = higher.

Columns and labels:
Experiment in all cases: NCI anticancer screen, dose series, 48 h
786-0 = system: 786-0
A549 = system: A549
DU-145 = system: DU-145
HCC 2998 = system: HCC 2998
HL-60 = system: HL-60
IGROV-1 = system: IGROV-1
K562 = system: K562
KM12 = system: KM12
MCF7 = system: MCF7
MOLT-4 = system: MOLT-4
NCI-H226 = system: NCI-H226
NCI-H23 = system: NCI-H23
NCI/ADR-RES = system: NCI/ADR-RES
OVCAR-3 = system: OVCAR-3
RPMI-8226 = system: RPMI-8226
SK-MEL-5 = system: SK-MEL-5
SN12C = system: SN12C
SNB-75 = system: SNB-75
TK-10 = system: TK-10
UO-31 = system: UO-31

Row | Compound | GI50 (786-0) | GI50 (A549) | GI50 (DU-145) | GI50 (HCC 2998) | GI50 (HL-60) | GI50 (IGROV-1) | GI50 (K562) | GI50 (KM12) | GI50 (MCF7) | GI50 (MOLT-4) | GI50 (NCI-H226) | GI50 (NCI-H23) | GI50 (NCI/ADR-RES) | GI50 (OVCAR-3) | GI50 (RPMI-8226) | GI50 (SK-MEL-5) | GI50 (SN12C) | GI50 (SNB-75) | GI50 (TK-10) | GI50 (UO-31)
1 | Oc1nc2cc3nc(O)c(O)nc3cc2nc1O | > 100 µM (inactive) | > 100 µM (inactive) | > 100 µM (inactive) | > 100 µM (inactive) | > 100 µM (inactive) | > 100 µM (inactive) | > 100 µM (inactive) | > 100 µM (inactive) | > 100 µM (inactive) | > 100 µM (inactive) | > 100 µM (inactive) | > 100 µM (inactive) | > 100 µM (inactive) | > 100 µM (inactive) | > 100 µM (inactive) | > 100 µM (inactive) | > 100 µM (inactive) | > 100 µM (inactive) | > 100 µM (inactive) | > 100 µM (inactive)
2 | Cc1cccc2c1CC(C1OC(=O)c3ccccc31)C2=O (stereo not given) | > 100 µM (inactive) | > 100 µM (inactive) | > 100 µM (inactive) | > 100 µM (inactive) | > 100 µM (inactive) | > 100 µM (inactive) | > 100 µM (inactive) | > 100 µM (inactive) | > 100 µM (inactive) | > 100 µM (inactive) | > 100 µM (inactive) | > 100 µM (inactive) | > 100 µM (inactive) | > 100 µM (inactive) | > 100 µM (inactive) | > 100 µM (inactive) | > 100 µM (inactive) | > 100 µM (inactive) | > 100 µM (inactive) | > 100 µM (inactive)
3 | C/C=C\C(C)=C/C(C)C(=O)CC(O)CC1CC(=O)NC(=O)C1 (stereo not given) | 13.5 µM (inactive) | 21.5 µM (inactive) | 19.1 µM (inactive) | 33.5 µM (inactive) | 40.2 µM (inactive) | 19 µM (inactive) | 20.5 µM (inactive) | 14.6 µM (inactive) | 21 µM (inactive) | 4.79 µM (inactive) | 35.5 µM (inactive) | 23.7 µM (inactive) | 4.71 µM (inactive) | 22.3 µM (inactive) | 19 µM (inactive) | 17.9 µM (inactive) | 13 µM (inactive) | 5.27 µM (inactive) | 49.2 µM (inactive) | 20.1 µM (inactive)
4 | COc1ccc(N2C(=O)CC(=O)N(NC(=O)C(C)Oc3ccccc3C)C2=S)cc1 (stereo not given) | > 100 µM (inactive) | > 100 µM (inactive) | > 100 µM (inactive) | > 100 µM (inactive) | > 100 µM (inactive) | > 100 µM (inactive) | > 100 µM (inactive) | > 100 µM (inactive) | > 100 µM (inactive) | > 100 µM (inactive) | > 100 µM (inactive) | > 100 µM (inactive) | > 100 µM (inactive) | > 100 µM (inactive) | > 100 µM (inactive) | > 100 µM (inactive) | > 100 µM (inactive) | > 100 µM (inactive) | > 100 µM (inactive) | > 100 µM (inactive)
5 | C1=C\CCCCN2C[C@H]3CCCC/C=C\CCCCN4CC[C@@H]([C@H](CCCCCC/1)C4)[C@H](C3)C2 | 1.75 µM (inactive) | 2.09 µM (inactive) | 5.48 µM (inactive) | 0.51 µM (active) | 2.31 µM (inactive) | 3.37 µM (inactive) | 1.47 µM (inactive) | 1.82 µM (inactive) | 1.93 µM (inactive) | 1.49 µM (inactive) | 17.6 µM (inactive) | 6.24 µM (inactive) | 3.12 µM (inactive) | 1.8 µM (inactive) | 1.57 µM (inactive) | 1.61 µM (inactive) | 10 µM (inactive) | 2.16 µM (inactive) | 2.28 µM (inactive) | 1.66 µM (inactive)
6 | N#CC1(C#N)NC(c2ccsc2)C(C#N)(C#N)NC1c1ccsc1 (stereo not given) | > 100 µM (inactive) | > 100 µM (inactive) | > 100 µM (inactive) | > 100 µM (inactive) | > 100 µM (inactive) | > 100 µM (inactive) | > 100 µM (inactive) | > 100 µM (inactive) | > 100 µM (inactive) | > 100 µM (inactive) | > 100 µM (inactive) | > 100 µM (inactive) | > 100 µM (inactive) | > 100 µM (inactive) | > 100 µM (inactive) | > 100 µM (inactive) | > 100 µM (inactive) | > 100 µM (inactive) | > 100 µM (inactive) | > 100 µM (inactive)
7 | FC(F)(F)C1(c2ccccc2)SCc2nc3ccccc3n21 (stereo not given) | > 100 µM (inactive) | > 100 µM (inactive) | > 100 µM (inactive) | > 100 µM (inactive) | 24.2 µM (inactive) | > 100 µM (inactive) | 43.7 µM (inactive) | > 100 µM (inactive) | > 100 µM (inactive) | 61.7 µM (inactive) | > 100 µM (inactive) | 71.9 µM (inactive) | > 100 µM (inactive) | > 100 µM (inactive) | 70.5 µM (inactive) | 66.1 µM (inactive) | > 100 µM (inactive) | 88.1 µM (inactive) | > 100 µM (inactive) | 55.5 µM (inactive)
8 | O=C(NCCCCNCCCNC(=O)c1cc(-c2ccccc2)nc2ccccc12)c1cc(-c2ccccc2)nc2ccccc12 | 1.67 µM (inactive) | 1.65 µM (inactive) | 1.78 µM (inactive) | 1.64 µM (inactive) | 1.71 µM (inactive) | 1.55 µM (inactive) | 1.81 µM (inactive) | 1.7 µM (inactive) | 1.64 µM (inactive) | 1.42 µM (inactive) | 1.78 µM (inactive) | 1.98 µM (inactive) | 2.26 µM (inactive) | 1.55 µM (inactive) | 2.5 µM (inactive) | 1.44 µM (inactive) | 1.97 µM (inactive) | 1.84 µM (inactive) | 1.59 µM (inactive) | 1.7 µM (inactive)
